Experiments:
[1] = system: mild-to-moderate Alzheimer's disease patients; experiment: Phase 2a trial: EEG peak alpha frequency (PAF); assay type: in vivo, human; settings: 12 patients, day 36
Experimental: The 36-day multicenter randomized clinical trial included both male and female mild-to-moderate Alzheimer's disease patients. ANAVEX2-73 was administered to twelve subjects as an add-on therapy to the donepezil current standard of care. ANAVEX2-73 was administered according to a two-period on-off-on cross-over dosing regimen in which the subjects were administered ANAVEX2-73 for 12 days (1st period) followed by a 12-day wash-out period before being administered ANAVEX2-73 for a second 12-day period (2nd period). Those subjects that were administered ANAVEX2-73 by oral administration during the 1st period were administered ANAVEX2-73 intravenously during the 2nd period, and vice versa. […]
Subjects were tested using a three-stimulus oddball paradigm. […] Electroencephalographic (EEG) activity was recorded from seven electrode sites (Fz, Cz, Pz, F3, P3, F4, and P4) of the international 10-20 system using a COGNISION™ Headset (Neuronetrix). […]
FIG. 8 illustrates electroencephalographic (EEG) peak alpha frequency (PAF) data for twelve patients at baseline and day 36 following the on-off-on ANAVEX2-73 dosing regimen, as compared to a healthy control group. Electroencephalographic (EEG) peak alpha frequency (PAF), measured in Hz, is a distinctive individual “fingerprint” that has been correlated to cognitive performance and reflects a trait or state of cognitive preparedness. […]

[2] = system: patients with early signs of Alzheimer's disease; experiment: Single-patient examples of intermittent dosing in early Alzheimer's disease (Examples 1-5); assay type: in vivo, human
Text: The following examples show uses of ANAVEX2-73 in the treatment of patients with Alzheimer's disease or presenting with the early signs of Alzheimer's disease. The clinical determination that a patient may have Alzheimer's disease or is presenting with early signs of Alzheimer's disease is well known in the art. By way of example, the following references (and all publications cited herein) are incorporated by reference herein in their entireties: Dementia: From Diagnosis to Management—A Functional Approach 1st Edition, Psychology Press (Feb. 17, 2009); Clinician's Guide to Psychological Assessment and Testing: With Forms and Templates for Effective Practice 1st Edition, Springer Publishing Company (Sep. 18, 2012); Neurodegener. Dis. Manag. 5(3), 191-201 (2015); Artif. Intell. Med. 64(1), 59-74 (2015); Clin. Chem. 60(12), 1585-1586 (2014); and Metabolism 64(3 Suppl 1), S47-50 (2014).
(§1) A person presents with early signs of Alzheimer's disease. They are orally administered a pharmaceutical composition containing 30 mg ANAVEX2-73 according to an intermittent dosing regimen where each cycle includes daily administration for 10 days (dosing period) followed by 10 days of no administration (resting period). The patient is administered 30 mg ANAVEX2-73 according to the intermittent dosing regimen for 6 months. Their loss of cognitive function stabilizes during that period.
(§2) A person presents with signs of early onset Alzheimer's disease. They are orally administered a pharmaceutical composition containing 50 mg ANAVEX2-73 according to an intermittent dosing regimen where each cycle includes daily administration for 10 days (dosing period) followed by 20 days of no administration (resting period). Their loss of cognitive function stabilizes during that period.
as §2, with “are” for “are orally”, “3” for “a pharmaceutical composition containing 50”, “mg of” for “mg”, “ANAVEX2-73 intravenously” for “ANAVEX2-73”, “5” for “10”, “period) for one year.” for “period).”
A person presents with signs of early onset Alzheimer's disease. They are administered 5 mg of ANAVEX2-73 intravenously according to an intermittent dosing regimen where each cycle includes daily administration for 14 days (dosing period) followed by 7 days of no administration (resting period) for one year. Their loss of cognitive function stabilizes during that period.
as §1, with “containing 50” for “containing 30”, “for 14” for “for 10”, “by 7” for “by 10”, “administered 50” for “administered 30”, “function is stabilized” for “function stabilizes”

[3] = target: sigma-1 receptor (Homo sapiens, UniProt Q99720); settings: believed to bind; cited from earlier work
[4] = system: amyloid β25-35 peptide (Aβ25-35) toxicity; settings: cited from earlier work
[5] = Randomized, placebo-controlled single ascending dose Phase 1 study in healthy male volunteers; assay type: in vivo, human
Experimental: See Poster: A Phase 1 Dose Escalation Study to Investigate Safety, Tolerability, and Pharmacokinetics of ANAVEX2-73 in Healthy Male Subjects, CNS Summit 2014, Boca Raton, Fla., by Ole Voges, Ingo Weigmann, Norman Bitterlich, Christoph Schindler and Christopher Missling. […] Based on the frequency and intensity of […] adverse events (TEAEs) the maximum tolerable dose (MTD) and the minimum intolerable dose (MID) were defined as 55 mg and 60 mg, respectively.

[6] = system: mild-to-moderate Alzheimer's disease patients; experiment: Phase 2a trial: MMSE and Cogstate scales, safety profile; assay type: in vivo, human
Experimental: (§3) The 36-day multicenter randomized clinical trial included both male and female mild-to-moderate Alzheimer's disease patients. ANAVEX2-73 was administered to twelve subjects as an add-on therapy to the donepezil current standard of care. ANAVEX2-73 was administered according to a two-period on-off-on cross-over dosing regimen in which the subjects were administered ANAVEX2-73 for 12 days (1st period) followed by a 12-day wash-out period before being administered ANAVEX2-73 for a second 12-day period (2nd period). Those subjects that were administered ANAVEX2-73 by oral administration during the 1st period were administered ANAVEX2-73 intravenously during the 2nd period, and vice versa. About half of the subjects were administered a 30 mg oral dosage form while the other half of subjects were administered a 50 mg oral dosage form. The intravenous dosage was either 3 mg or 5 mg, with about half of the subjects administered 3 mg and the other half administered 5 mg.
The results for the twelve subject on-off-on dosing regimen of ANAVEX2-73, shown in FIGS. 5-9, were achieved without any dose optimization. […] An additional 20 subjects will be studied during the remainder of the Phase 2a clinical trial. Phase 2b clinical trials, involving an additional 26-week extension of daily oral dosage administration of ANAVEX2-73 is on-going.

[7] = system: mild-to-moderate Alzheimer's disease patients; experiment: Phase 2a trial: auditory P300 event related potential (three-stimulus oddball paradigm); assay type: in vivo, human
Experimental: as §3
Resting electroencephalographic (EEG) activity and event related potentials (EEG/ERP) were used to assess the cognitive effects of ANAVEX2-73 administration. Event related potentials (ERPs) are voltage changes time-locked to some physical or mental occurrence in ongoing electrical brain activity, as recorded by EEG. Event-related potentials (ERPs) provide a sensitive and reliable measure of the cognitive effects associated with early Alzheimer's disease. […] See for example, New Encycl. Neurosci., Oxford Academic Press, p. 13-18 (2009). For example, ERP tests on young presymptomatic individuals who carry mutations in the presenilin-1 and amyloid precursor protein genes show significant changes in ERP patterns years before the onset of behavioral symptoms and the development of Alzheimer's disease. See for example, Neurology 73, 1649-1655 (2009); Neurology 77, 469-475 (2011). […] For instance, ERP markers of cognitive function are increasingly altered in longitudinal studies on individuals with mild cognitive impairment (MCI) and Alzheimer's disease patients. See for example, Clin. Neurophysiol. 122, 1322-1326 (2011); Clin. Neurophysiol. 121, 194-199 (2010). […] See for example, Neurol. Neurochir. Pol. 35 Suppl 3, 37-43 (2001); Clin. Neuropharmacol. 25, 207-215 (2002); Neurosci. Biomed. Eng. 1, 34-39 (2013).
In particular, the auditory P300 component of the ERP has been widely applied in the study of age-related cognitive dysfunction because it is thought to reflect attentional and memory processes. Auditory P300 is a positive deflection occurring at about 300 ms from stimulus onset. It is generated by the activation of multiple neocortical and limbic regions. […]

[8] = system: muscarinic acetylcholine receptors; settings: believed to bind; cited from earlier work

Sequence of sigma-1 receptor (Q99720 whole entry, species assumed): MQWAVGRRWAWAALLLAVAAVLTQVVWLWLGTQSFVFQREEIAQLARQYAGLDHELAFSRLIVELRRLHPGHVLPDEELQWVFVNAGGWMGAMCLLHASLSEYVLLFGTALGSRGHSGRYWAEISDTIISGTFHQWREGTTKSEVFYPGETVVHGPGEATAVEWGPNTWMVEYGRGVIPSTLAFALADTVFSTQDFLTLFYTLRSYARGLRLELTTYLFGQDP

For `CN(C)CC1CCOC1(c1ccccc1)c1ccccc1.Cl` (stereo not shown) [ANAVEX2-73, tetrahydro-N,N-dimethyl-2,2-diphenyl-3-furanmethanamine hydrochloride], the “EEG peak alpha frequency (PAF) vs baseline” value [1] was “higher”, the “loss of cognitive function” value ([2]; Example 1: person, 30 mg oral, 10 days on / 10 days off, 6 months) was “stabilizes” and the “loss of cognitive function” value ([2]; Example 2: person, 50 mg oral, 10 days on / 20 days off) was “stabilizes”. For the same compound, the “loss of cognitive function” value ([2]; Example 3: person, 3 mg intravenously, 5 days on / 20 days off, one year) was “stabilizes”, the “loss of cognitive function” value ([2]; Example 4: person, 5 mg intravenously, 14 days on / 7 days off, one year) was “stabilizes” and the “loss of cognitive function” value ([2]; Example 5: person, 50 mg oral, 14 days on / 7 days off, 6 months) was “is stabilized”. For the same compound, the “affinity for sigma-1 receptor” value [3] was “low micromolar range”, the “hyperphosphorylation of Tau on physiological (AT-8) and pathological (AT-100) epitopes” value ([4]; in the dose-range tested) was “attenuated” and the “oxidative stress, caspases induction, cellular loss and learning and memory deficits” value ([4]; mice one week after i.c.v. injection of oligomeric Aβ25-35) was “attenuating”. For the same compound, the “Aβ25-35-induced P-Akt decrease and P-GSK-3β increase” value ([4]; mice, Aβ25-35) was “blocked”, the “Aβ25-35-induced endogenous Aβ1-42 seeding” value ([4]; mouse, in vivo) was “decrease” and the observed adverse events ([5]; human, in vivo) was “moderate and reversible dizziness and headache”. The “QT interval and QTcB” value ([5]; human, in vivo, po) was “did not reveal any clinically significant changes”, the “blood pressure, resting heart rate, vital signs and 12-lead ECG” value ([5]; human, in vivo, po) was “did not show any clinically relevant or dose-dependent changes” and the pharmacokinetics ([5]; human, in vivo, po) was “suitable for daily oral dosing”. The serious adverse events ([5]; human, in vivo, po) was “No serious adverse events occurred”, the “minimum intolerable dose (MID)” value ([5]; male, human, in vivo, po) was 60 mg and the “maximum tolerable dose (MTD)” value ([5]; single oral dose, healthy male volunteers) was 55 mg. For the same compound, the “safety profile during Phase 2a” value ([6]; Phase 2a trial) was “consistent with the Phase 1 data”, the “Mini Mental State Examination (MMSE) and Cogstate scale changes” value ([6]; preliminary, 12 patients) was “consistent with the observed trend of the cognitive EEG/ERP effect” and the “P300 ERP wave: measured cognitive performance vs baseline” value ([7]; 12 patients, day 36, on-off-on regimen (30/50 mg oral, 3/5 mg i.v.), add-on to donepezil) was “improved measured cognitive performance”. For the same compound, the “P300 amplitude, Percentage Increase Over Baseline Data” value ([7]; 12 patients, day 36 vs baseline, hydrochloride) was 38%, the “P300 amplitude change vs historical donepezil at the 1 month time point” value ([7]; day 36 (1 month), change from baseline, donepezil data from the literature) was “about four times higher” and the “percent P300 amplitude change after 1 month vs historical donepezil after 6 months” value ([7]; day 36 (1 month), donepezil data from the literature) was “greater”. For the same compound, the “affinity for muscarinic acetylcholine receptors” value [8] was “low micromolar range”.

— patent US11103478B2, “Anavex2-73 for the treatment of alzheimer's disease” (ANAVEX LIFE SCIENCES CORP., priority 2017, dated 2021)
